The results in this text go back to BindingDB's records for doi:10.1021/jm00011a008 (Upjohn, 1995).

Structures are written as SMILES.

Broadly, the Ki is a measure of affinity in units of concentration, obtained from inhibition or displacement. Lower therefore signals higher affinity.

The target of this assay is T1, Dimer of Gag-Pol polyprotein [489-587] (Human immunodeficiency virus 1, UniProt P12497).
T1 construct: 489-587
The experiment in a line: Protease Inhibition Assay. Particulars: pH 5; 22 °C.
Source text: HIV-1 protease was purified and refolded from E. coli inclusion bodies. […] In the presence of HIV-l protease, the substrate is rapidly cleaved into two parts. The biotinylated amino terminal fragment binds to the avidin beads while the FITC-containing carboxy1 terminal fragment is removed through the membrane. […] The bound fluorescence is obtained by processing on an IDEXX Screen Machine. Determination of Ki values with this assay requires analysis under conditions in which substrate concentration resides substantially below Km and the inhibitor concentrations greatly exceeds the Ki value and the enzyme concentration.
Turning to `CC(C)C(c1ccccc1)c1c(O)c2c(oc1=O)CCCCCC2` (stereo not given) [5,6,7,8,9,1O-Hexahydro-4-hydroxy-3-(2-methyl-nylpropyl)-W-cycloocta[b]pyran-2-one], the inhibitory constant (Ki) was determined as 22 nM.

`CCCCC(c1ccccc1)c1c(O)c2c(oc1=O)CCCCCC2` (stereo not given) [5,6,7,8,9,10-Hexahydroro-4-hydroxy-1-phenylpentyl)-W-cycloocta[blpyran-2-one] gave a Ki of 62 nM.

`O=c1oc2c(c(O)c1C(c1ccccc1)c1ccccc1)CCCCCC2` [3-(Diphenylmethyl)-5,6,7,8,9,1O-hexahydro-4-hydroxy-W-cycloocta[b]pyran-2-one] registered a Ki of 180 nM.

`CC(C)CC(c1ccccc1)c1c(O)c2c(oc1=O)CCCCCC2` (stereo not drawn) [5,6,7,8,9,1O-Hexahydro-4-hydroxy-3-(3-methyl-l-phe-nylbutyl)-W-cycloocta[b]pyran-2-one] had a Ki of 90 nM.

For the compound `CCCC(c1ccccc1)c1c(O)c2c(oc1=O)CCCCCC2` (stereo not given) [4-hydroxy-3-(1-phenylbutyl)-2H,5H,6H,7H,8H,9H,10H-cycloocta[b]pyran-2-one], the affinity, expressed as Ki, was 29 nM.
